Measurements reported in ChEMBL document CHEMBL1140606, “Green tea catechins inhibit bacterial DNA gyrase by interaction with its ATP binding site” (J Med Chem, 2007).
In brackets after ≈: the same amount, converted by molar mass. Activity calls are given as the source filed them. The rule behind the calls is not given here.

Experiments:
Escherichia coli [1] = test: Inhibition of Escherichia coli DNA gyrase B ATPase activity
Escherichia coli [2] = test: (§1) Inhibition of Escherichia coli DNA gyrase B supercoiling activity
Escherichia coli [3] = test: Antibacterial activity against Escherichia coli; type: functional
Escherichia coli [4] = test: Inhibition of Escherichia coli DNA gyrase B supercoiling activity upto 100 uM
[5] = Displacement of fluorescent quercetin from Escherichia coli BL21 (DE3) recombinant DNA gyrase B G24
Escherichia coli [6] = test: Displacement of picogreen from Escherichia coli DNA gyrase B
Escherichia coli [7] = test: Displacement of ethidium bromide from Escherichia coli DNA gyrase B
[8] = as §1

Structure (SMILES) | Activity (Escherichia coli [1]) | Activity (Escherichia coli [2]) | MIC (Escherichia coli [3]) [µM] | Activity (Escherichia coli [4]) | Kd [5] [µM] | Activity (Escherichia coli [6]) | Activity (Escherichia coli [7]) | IC50 [8] [µM]
Oc1cc(O)c2c(c1)O[C@H](c1ccc(O)c(O)c1)[C@H](O)C2 [(-)-EPICATECHIN] | inactive | inactive | > 1000 | inactive | 54 | inactive | inactive | –
O=C(O[C@@H]1Cc2c(O)cc(O)cc2O[C@@H]1c1ccc(O)c(O)c1)c1cc(O)c(O)c(O)c1 [EPICATECHIN GALLATE] | Active | – | 25 (≈ 11.1 µg/mL) | – | 36 | inactive | inactive | 50
Oc1cc(O)c2c(c1)O[C@H](c1cc(O)c(O)c(O)c1)[C@H](O)C2 [EPIGALLOCATECHIN] | Active | – | 100 (≈ 30.6 µg/mL) | inactive | 34 | inactive | inactive | –
O=C(O[C@@H]1Cc2c(O)cc(O)cc2O[C@@H]1c1cc(O)c(O)c(O)c1)c1cc(O)c(O)c(O)c1 [EPIGALOCATECHIN GALLATE] | Active | – | 10 (≈ 4.58 µg/mL) | – | 23 | inactive | inactive | 50
O=c1c(O)c(-c2ccc(O)c(O)c2)oc2cc(O)cc(O)c12 [QUERCETIN] | – | – | – | – | 15 | – | – | –
